Measured values from patent US7879864B2, “Substituted 8-aminoalkoxy-xanthine compounds and compositions useful in the treatment of hyperlipidemia and diabetes” (Sanofi-Aventis Deutschland GmbH, priority 2004, dated 2011).
Where a name gives a salt, the structure may show the parent alone.

Test system: not given
Assay: not given
Conditions: not given
With `CC(C)=CCn1c(O[C@@H]2CCCC[C@H]2CN)nc2c1c(=O)n(CC(=O)c1ccccc1)c(=O)n2C` (single isomer, unassigned; diastereomer 1) [Example 38, trans-8-(2-Aminomethylcyclohexyloxy)-3-methyl-7-(3-methylbut-2-enyl)-1-(2-oxo-2-phenylethyl)-3,7-dihydropurine-2,6-dione (diastereomer 1)] the melting point was 151.7 °C.

Target: T1, DPP-IV from porcine kidney (Sus scrofa, UniProt P22411)
T1 construct: DPP-IV from porcine kidney (Sigma, Munich); purchased Sigma, Munich; host or cells: porcine kidney
T1 sequence (P22411 whole entry): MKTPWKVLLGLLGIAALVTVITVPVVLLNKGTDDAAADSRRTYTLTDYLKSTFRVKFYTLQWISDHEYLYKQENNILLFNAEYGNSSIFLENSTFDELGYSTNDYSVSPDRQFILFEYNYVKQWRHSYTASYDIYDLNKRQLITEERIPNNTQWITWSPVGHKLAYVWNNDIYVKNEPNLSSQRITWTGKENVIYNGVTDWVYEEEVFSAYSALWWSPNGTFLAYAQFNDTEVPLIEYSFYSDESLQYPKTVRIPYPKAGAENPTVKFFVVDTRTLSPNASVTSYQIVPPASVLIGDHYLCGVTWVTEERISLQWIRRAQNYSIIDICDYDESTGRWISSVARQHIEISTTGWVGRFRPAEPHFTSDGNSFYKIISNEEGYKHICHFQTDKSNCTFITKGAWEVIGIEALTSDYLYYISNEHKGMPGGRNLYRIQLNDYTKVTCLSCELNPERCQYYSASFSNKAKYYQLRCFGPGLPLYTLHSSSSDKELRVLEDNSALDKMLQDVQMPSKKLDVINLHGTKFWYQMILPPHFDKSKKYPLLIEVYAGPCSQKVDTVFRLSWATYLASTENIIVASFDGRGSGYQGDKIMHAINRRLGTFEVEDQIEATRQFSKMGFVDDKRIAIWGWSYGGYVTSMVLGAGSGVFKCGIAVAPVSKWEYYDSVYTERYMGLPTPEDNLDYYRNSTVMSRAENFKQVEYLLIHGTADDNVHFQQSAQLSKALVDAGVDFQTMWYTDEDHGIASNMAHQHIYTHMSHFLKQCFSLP
Assay: Measurement of the DPP-IV activity (fluorimetric H-Ala-Pro-AFC conversion)
Assay type: biochemical
Conditions: DPP-IV 1 mU/ml, H-Ala-Pro-AFC 15 μM, Tris/HCl 40 mM pH 7.4, room temperature, typically 10 min
Procedure: The activity of the compounds was assayed as follows: • Measurement of the DPP-IV activity:
The reaction was carried out at room temperature for various times (typically 10 min) and stopped at the end of the reaction by adding 20 μl of ZnCl2 (1 M). […] When inhibitors were added, the added buffer volume was adapted so that a total volume of 200 μl was maintained for the assay mixture.
For `CC(C)=CCn1c(OC[C@@H]2CCNC2)nc2c1c(=O)n(CC(=O)c1ccccc1)c(=O)n2C` [Example 10, (R)-3-Methyl-7-(3-methylbut-2-enyl)-1-(2-oxo-2-phenylethyl)-8-(pyrrolidin-3-ylmethoxy)-3,7-dihydropurine-2,6-dione hydrochloride], the IC50 was 0.034 µM.
`CC(C)=CCn1c(OC2CCCCC2CN)nc2c1c(=O)n(CC(=O)c1ccccc1)c(=O)n2C` (mixture of isomers) [Example 37, trans-8-(2-Aminomethylcyclohexyloxy)-3-methyl-7-(3-methylbut-2-enyl)-1-(2-oxo-2-phenylethyl)-3,7-dihydropurine-2,6-dione hydrochloride (mixture of diastereomers)] showed an IC50 of 0.0045 µM.
With `CC(C)=CCn1c(OCCN)nc2c1c(=O)n(CC(=O)c1ccccc1)c(=O)n2C` [Example 2, 8-(2-Aminoethoxy)-3-methyl-7-(3-methylbut-2-enyl)-1-(2-oxo-2-phenylethyl)-3,7-dihydropurine-2,6-dione] the IC50 was 0.02 µM.
In the case of `CC(C)=CCn1c(OC[C@@H](C)N)nc2c1c(=O)n(CC(=O)c1ccccc1)c(=O)n2C` [Example 11, (R)-8-(2-Aminopropoxy)-3-methyl-7-(3-methylbut-2-enyl)-1-(2-oxo-2-phenylethyl)-3,7-dihydropurine-2,6-dione], the IC50 is reported as 0.1 µM.
Work on `CC(C)=CCn1c(O[C@@H]2CCCC[C@@H]2CN)nc2c1c(=O)n(CC(=O)c1ccccc1)c(=O)n2C` (relative stereo) [Example 28, cis-8-(2-Aminomethylcyclohexyloxy)-3-methyl-7-(3-methylbut-2-enyl)-1-(2-oxo-2-phenylethyl)-3,7-dihydropurine-2,6-dione] yielded an IC50 of 0.013 µM.
For `CC(C)=CCn1c(OCC(N)Cc2ccc(Cl)cc2)nc2c1c(=O)n(CC(=O)c1ccccc1)c(=O)n2C` (stereo not shown) [Example 3, 8-[2-Amino-3-(4-chlorophenyl)propoxyl]-3-methyl-7-(3-methylbut-2-enyl)-1-(2-oxo-2-phenylethyl)-3,7-dihydropurine-2,6-dione], the IC50 was 0.46 µM.
For `CC(C)=CCn1c(OC[C@H](C)N)nc2c1c(=O)n(CC(=O)c1ccccc1)c(=O)n2C` [Example 4, (S)-8-(2-Aminopropoxy)-3-methyl-7-(3-methylbut-2-enyl)-1-(2-oxo-2-phenylethyl)-3,7-dihydropurine-2,6-dione], the IC50 was 0.028 µM.
Work on `CC(C)=CCn1c(OCC2CCCCN2)nc2c1c(=O)n(CC(=O)c1ccccc1)c(=O)n2C` (stereo not shown) [Example 7, 3-Methyl-7-(3-methylbut-2-enyl)-1-(2-oxo-2-phenylethyl)-8-(piperidin-2-ylmethoxy)-3,7-dihydropurine-2,6-dione] yielded an IC50 of 0.051 µM.
`CC(C)=CCn1c(OC[C@H]2CCNC2)nc2c1c(=O)n(CC(=O)c1ccccc1)c(=O)n2C` [Example 9, (S)-3-Methyl-7-(3-methylbut-2-enyl)-1-(2-oxo-2-phenylethyl)-8-(pyrrolidin-3-ylmethoxy)-3,7-dihydropurine-2,6-dione hydrochloride] showed an IC50 of 0.12 µM.
